Experimental data taken from US20240190831A1, “TRANSTHYRETIN STABILIZING COMPOUNDS” (Protego Biopharma, Inc., priority 2021, published 2024).

What was measured:
[1] = In vitro rat liver S9 stability assay (formation of tafamidis); assay type: in vitro ADME; details: rat liver S9, 1 μM test compound, 37° C.
Procedure: A stability assay in liver S9 (rat or human) was used to evaluate the ability of a compound provided herein to convert to an active TTR stabilizer. The test compound was added to liver S9 and incubated at 37° C. in a water bath at a concentration of 1 μM. At each time point (0, 5, 10, 20, 30 and 60 min), stop solution (tolbutamide plus labetalol) was added to precipitate protein and mixed thoroughly. After centrifugation, an aliquot of supernatant was analyzed by LC-MS/MS. The percentage of formation of active agent was calculated at each time point.

[2] = In vivo rat PK (CSF/plasma and brain/plasma ratio of tafamidis); details: for Tafamidis CSF/plasma Ratio over 24 hrs (po): oral dosing of test compound
Description: For a compound provided herein to be an effective TTR stabilizer drug to halt and/or prevent the ocular and cerebral TTR amyloid deposition TTR amyloidosis, it has to be able to penetrate into the brain and CSF (surrogate for eye penetration) and deliver a sufficient amount of TTR stabilizer to stop TTR dissociation. A pharmacokinetic study in rat was used to evaluate the compounds. Male Sprague-Dawley (SD) rats (200-220 g weight) were acclimated for at least 2 to 3 days before being placed on study. All animals had access to certified rodent diet and water at libitum. Appropriate amount of the test compound was accurately weighed and mixed with appropriate volume of vehicle (such as DMSO/sterile water for iv dosing or 0.5% methylcellulose homogenous suspension or solution for oral administration or as a solution in a mixture NMP/PEG400/solutol/water) to administer a dose of 2, 5 or 10 mg/kg. For IV dosing the test compound was administered via tail vein or indwelling cannula. For oral dosing, the test compound was administered by oral gavage. Blood and CSF samples were collected at selected timepoints. Blood collection was performed from saphenous vein or tail vein of each animal into polypropylene tubes at each timepoint. All blood samples were transferred into EDTA-K2 tubes and centrifuged for 15 minutes at 4° C. for plasma collection. Plasma samples were kept at −80° C. until LC/MSMS analysis. CSF was collected from cisterna magna at each timepoint and quick frozen over dry ice and kept at −80° C. until LC/MSMS analysis. Brains were harvested immediately after the terminal bleeding (˜24 hrs post dosing). The blood of the brain was perfused with normal saline. The brain was quickly picked and placed into centrifuge tube. The weight of brain samples was recorded. 4-Fold homogenization solution (MeOH/15 mM PBS (1:2)) was added into the tube according to the weighed samples. The brain was homogenized using a Polytron (3 strokes or more until homogenous, each 30 seconds) on wet ice. The samples were quick frozen over dry ice and kept at −80° C. until LC/MSMS analysis. Using a LC-MSMS method for the quantitative determination of test compound in biological matrixes, amount of test compound and active agent were measured in plasma and CSF at selected timepoints post-dosing and in brain at 24 hrs post dosing. Plasma concentration versus time data was analyzed by non-compartmental approaches using the Phoenix WinNonlin 6.3 software program. As reference, an oral dose of 2 mg/kg of tafamidis gave a CSF to plasma ratio over 24 hrs around 0.01 and a brain to plasma ratio at 24 hrs around 0.02.
Results from rat PK (CSF/plasma ratio and brain/plasma ratio at 24 hrs) are shown in Table 4B and Table 4C, respectively.

[3] = tafamidis-treated FAP patients; cited from earlier work

| SMILES | Formation of tafamidis at 60 min [1] | also measured |
| --- | --- | --- |
| CN(C)CCNC(=O)c1ccc2nc(-c3cc(Cl)cc(Cl)c3)oc2c1 [Compound 7, 2-(3,5-dichlorophenyl)-N-(2-(dimethylamino)ethyl)benzo[d]oxazole-6-carboxamide] | A (A is <25%) | Tafamidis CSF/plasma Ratio over 24 hrs (po) [2]: C (C is ≥0.02) |
| CC(Cc1ncc[nH]1)OC(=O)c1ccc2nc(-c3cc(Cl)cc(Cl)c3)oc2c1 (stereo not drawn) [Compound 34, 1-(1H-imidazol-2-yl)propan-2-yl 2-(3,5-dichlorophenyl)benzo-[d]oxazole-6-carboxylate] | A (A is <25%) | Tafamidis CSF/plasma Ratio over 24 hrs (po) [2]: B (B is ≥0.015 to <0.02) |
| O=C(N[C@H]1CC[C@H](O)CC1)c1ccc2nc(-c3cc(Cl)cc(Cl)c3)oc2c1 [Compound 97] | A (A is <25%) | – |
| O=C(NC1CC2(CC(O)C2)C1)c1ccc2nc(-c3cc(Cl)cc(Cl)c3)oc2c1 (stereo not drawn) [Compound 98] | A (A is <25%) | – |
| O=C(N[C@@H]1CCC[C@H](O)C1)c1ccc2nc(-c3cc(Cl)cc(Cl)c3)oc2c1 [Compound 99] | A (A is <25%) | – |
| O=C(N[C@@H]1CCC[C@@H](O)C1)c1ccc2nc(-c3cc(Cl)cc(Cl)c3)oc2c1 [Compound 100] | A (A is <25%) | – |
| CC1(O)CCCN(C(=O)c2ccc3nc(-c4cc(Cl)cc(Cl)c4)oc3c2)C1 (stereo not drawn) [Compound 102] | A (A is <25%) | – |
| CC1(O)CCN(C(=O)c2ccc3nc(-c4cc(Cl)cc(Cl)c4)oc3c2)CC1 [Compound 103] | A (A is <25%) | – |
| O=C(c1ccc2nc(-c3cc(Cl)cc(Cl)c3)oc2c1)N1CCC2(CC(O)C2)C1 (stereo not drawn) [Compound 105] | A (A is <25%) | – |
| CC1(O)CC2(CCN(C(=O)c3ccc4nc(-c5cc(Cl)cc(Cl)c5)oc4c3)C2)C1 (stereo not drawn) [Compound 106] | A (A is <25%) | – |
| O=C(c1ccc2nc(-c3cc(Cl)cc(Cl)c3)oc2c1)N1CC2(CCC(O)C2)C1 (stereo not drawn) [Compound 107] | A (A is <25%) | – |
| O=C(c1ccc2nc(-c3cc(Cl)cc(Cl)c3)oc2c1)N1C[C@@H]2[C@H](O)[C@@H]2C1 [Compound 108] | A (A is <25%) | – |
| CC1(O)CC2(CN(C(=O)c3ccc4nc(-c5cc(Cl)cc(Cl)c5)oc4c3)C2)C1 [Compound 110] | A (A is <25%) | – |
| CC1(O)CCC2(CN(C(=O)c3ccc4nc(-c5cc(Cl)cc(Cl)c5)oc4c3)C2)C1 (stereo not drawn) [Compound 111] | A (A is <25%) | – |
| O=C(c1ccc2nc(-c3cc(Cl)cc(Cl)c3)oc2c1)N1CC(F)(F)C[C@H]1CO [Compound 113] | A (A is <25%) | – |
| O=C(c1ccc2nc(-c3cc(Cl)cc(Cl)c3)oc2c1)N1CCCCC(F)(F)C1 [Compound 115] | A (A is <25%) | – |
| CC1(OC(=O)c2ccc3nc(-c4cc(Cl)cc(Cl)c4)oc3c2)CCNC1.Cl (stereo not drawn) [Compound 117] | A (A is <25%) | – |
| O=C(c1ccc2nc(-c3cc(Cl)cc(Cl)c3)oc2c1)N1CCCC1C(F)(F)F (stereo not drawn) [Compound 118] | A (A is <25%) | – |
| CC1(OC(=O)c2ccc3nc(-c4cc(Cl)cc(Cl)c4)oc3c2)CCN(CC(F)(F)F)C1 (stereo not drawn) [Compound 119] | A (A is <25%) | – |
| CC1(OC(=O)c2ccc3nc(-c4cc(Cl)cc(Cl)c4)oc3c2)CCN(CCF)C1 (stereo not drawn) [Compound 120] | A (A is <25%) | – |
| CC1(OC(=O)c2ccc3nc(-c4cc(Cl)cc(Cl)c4)oc3c2)CCN(CC(F)F)C1 (stereo not drawn) [Compound 122] | C (C is ≥50 to <75%) | – |
| CC1(OC(=O)c2ccc3nc(-c4cc(Cl)cc(Cl)c4)oc3c2)CCNCC1.Cl [Compound 123] | A (A is <25%) | – |
| CC1(OC(=O)c2ccc3nc(-c4cc(Cl)cc(Cl)c4)oc3c2)CCN(CC(F)(F)F)CC1 [Compound 124] | A (A is <25%) | – |
| CCN1CCC(C)(OC(=O)c2ccc3nc(-c4cc(Cl)cc(Cl)c4)oc3c2)CC1 [Compound 126] | A (A is <25%) | – |
| O=C(O)c1ccc2nc(-c3cc(Cl)cc(Cl)c3)oc2c1 [tafamidis] | – | Kp ([2]; male, Sprague-Dawley, CSF and plasma, oral dose of 2 mg/kg of tafamidis, reference, read-out: CSF to plasma ratio over 24 hrs): ~0.01; Kp at 24 h ([2]; male, Sprague-Dawley, brain and plasma, oral dose of 2 mg/kg of tafamidis, reference): ~0.02; tafamidis level in CSF, of that in plasma [3]: 2%; tafamidis level in vitreous, of that in plasma [3]: 0.5%; tafamidis/TTR stoichiometric ratio in plasma [3]: 2.4; tafamidis/TTR stoichiometric ratio in vitreous and CSF [3]: ≤ 1 |

Now from value to compound, other results behind:

| Formation of tafamidis at 60 min [1] | SMILES | also measured |
| --- | --- | --- |
| A (A is <25%) | O=C(c1ccc2nc(-c3cc(Cl)cc(Cl)c3)oc2c1)N1CCCC(O)C1 (stereo not drawn) [Compound 83] | Tafamidis CSF/plasma Ratio over 24 hrs (po) [2]: A (A is <0.015) |
| A (A is <25%) | O=C(c1ccc2nc(-c3cc(Cl)cc(Cl)c3)oc2c1)N1CCC(O)C1 (stereo not drawn) [Compound 84] | Tafamidis CSF/plasma Ratio over 24 hrs (po) [2]: A (A is <0.015) |
| A (A is <25%) | O=C(c1ccc2nc(-c3cc(Cl)cc(Cl)c3)oc2c1)N1CC(O)C1 [Compound 93] | Tafamidis CSF/plasma Ratio over 24 hrs (po) [2]: A (A is <0.015) |
| A (A is <25%) | CC1(O)CN(C(=O)c2ccc3nc(-c4cc(Cl)cc(Cl)c4)oc3c2)C1 [Compound 101] | Tafamidis CSF/plasma Ratio over 24 hrs (po) [2]: B (B is ≥0.015 to <0.02) |
| A (A is <25%) | O=C(c1ccc2nc(-c3cc(Cl)cc(Cl)c3)oc2c1)N1CCC(F)(F)C1 [Compound 104] | Tafamidis CSF/plasma Ratio over 24 hrs (po) [2]: A (A is <0.015) |
| A (A is <25%) | O=C(c1ccc2nc(-c3cc(Cl)cc(Cl)c3)oc2c1)N1C[C@@H]2[C@@H](O)[C@@H]2C1 [Compound 109] | – |
| A (A is <25%) | O=C(c1ccc2nc(-c3cc(Cl)cc(Cl)c3)oc2c1)N1CCC(F)C1 (stereo not drawn) [Compound 112] | – |
| A (A is <25%) | O=C(c1ccc2nc(-c3cc(Cl)cc(Cl)c3)oc2c1)N1CC[C@@H](O)[C@@H](F)C1 [Compound 114] | – |
| A (A is <25%) | O=C(c1ccc2nc(-c3cc(Cl)cc(Cl)c3)oc2c1)N1CCC(O)C(F)(F)C1 (stereo not drawn) [Compound 116] | – |
| A (A is <25%) | O=C(c1ccc2nc(-c3cc(Cl)cc(Cl)c3)oc2c1)N1C[C@@H](F)[C@@H](F)C1 [Compound 121] | – |
| A (A is <25%) | O=C(c1ccc2nc(-c3cc(Cl)cc(Cl)c3)oc2c1)N1CC[C@H](O)[C@H](F)C1 [Compound 125] | – |
